Format in all cases: cell-based
One assay has as its target T1, CRISPR KI D538G (Homo sapiens, UniProt P03372, D538G).
T1 construct: endogenous in cells; host or cells: CRISPR knock-in clones (cl. 50, cl. 65)
T1 sequence (P03372 1-595 D538G): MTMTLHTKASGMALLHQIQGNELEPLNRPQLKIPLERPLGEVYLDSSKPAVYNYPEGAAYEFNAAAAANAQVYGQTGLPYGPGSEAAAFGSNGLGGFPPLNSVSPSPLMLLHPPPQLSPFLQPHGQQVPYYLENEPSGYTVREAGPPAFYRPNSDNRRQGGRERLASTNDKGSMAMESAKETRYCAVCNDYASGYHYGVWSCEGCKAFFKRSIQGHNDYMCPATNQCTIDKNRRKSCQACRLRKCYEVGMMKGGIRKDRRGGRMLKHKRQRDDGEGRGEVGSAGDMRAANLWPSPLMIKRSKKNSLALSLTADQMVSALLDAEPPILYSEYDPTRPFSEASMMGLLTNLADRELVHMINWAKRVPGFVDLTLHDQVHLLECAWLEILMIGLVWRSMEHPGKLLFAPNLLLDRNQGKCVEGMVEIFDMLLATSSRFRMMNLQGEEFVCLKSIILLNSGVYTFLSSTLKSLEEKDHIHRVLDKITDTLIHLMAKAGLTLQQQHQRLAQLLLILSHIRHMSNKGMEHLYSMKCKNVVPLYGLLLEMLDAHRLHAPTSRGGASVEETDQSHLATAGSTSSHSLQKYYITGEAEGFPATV
Kind of assay: Luciferase assay, CRISPR KI D538G clones. The following applies: for CRISPR KI (% Inhibition) D538G cl. 50: clone 50; for CRISPR KI (% Inhibition) D538G cl. 65: clone 65. The procedure:
Luciferase assays were performed to determine the efficacy of the example compounds at inhibiting ER or its mutants' ability to activate transcription of genes.
Cells were plated at a density of 0.15×10^6 per well of 24 well plates one day prior to transfection. Cells were transfected with 125 ng (per well) of HA-ERα wild type or mutants, 315 ng (per well) of 3×-ERE-TATA-Luciferase reporter and 50 ng (per well) of pRL-TK Renilla Luciferase plasmid, using Xtremegene (Roche). The cells were treated with the various compounds or Fulvestrant at the indicated doses a day after transfection for 24 hours and luciferase activities were determined using the Dual-Luciferase® Reporter Assay System (Promega) according to manufacturer's instructions. Luciferase bioluminescence measurements were performed with the Veritas™ Microplate Luminometer (Promega). All experiments were conducted in triplicate and the Firefly luciferase activity was normalized with the Renilla luciferase activity of each sample.

The next assay has as its target T2, HA-ERα L536R (Homo sapiens, UniProt P03372, L536R).
T2 construct: HA; expressed in transfected cells
T2 sequence (P03372 1-595 L536R): T1 sequence (P03372 1-595 D538G) with L536R, G538D
Kind of assay: Luciferase assay, overexpressed ER (3×-ERE-TATA-Luciferase reporter). The following applies: compound concentration 1 μM, 24 hours. An outline of the steps:
(§1)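 Cells transfected with HA-ERα wild type or mutant, 3×-ERE-TATA firefly luciferase reporter and pRL-TK Renilla, then treated one day later with compound for 24 h.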
For orientation: A reporter such as luciferase makes a cellular process visible.

The next assay deals with T3, HA-ERα D538G (Homo sapiens, UniProt P03372, D538G).
T3 construct: HA; expressed in transfected cells
T3 sequence (P03372 1-595 D538G): T1 sequence (P03372 1-595 D538G)
Described as above. The following applies: compound concentration 1 μM, 24 hours. An outline of the steps:
as §1

Another assay deals with T4, HA-ERα Y537S (Homo sapiens, UniProt P03372, Y537S).
T4 construct: HA; expressed in transfected cells
T4 sequence (P03372 1-595 Y537S): T1 sequence (P03372 1-595 D538G) with Y537S, G538D
The assay is described as above. To be noted: compound concentration 1 μM, 24 hours. A digest of the protocol: as §1

The next assay has as its target T5, HA-ERα wild type (Homo sapiens, UniProt P03372).
T5 construct: HA; expressed in transfected cells
T5 sequence (P03372 1-595): T1 sequence (P03372 1-595 D538G) with G538D
The assay is described as above. The following applies: compound concentration 1 μM, 24 hours; read-out: Overexpressed ER (% Inhibition) WT. An outline of the steps: as §1

Results on 9 compounds are retold here after patent publication US11667621B2, “Antiestrogen compounds” (STEVENS INSTITUTE OF TECHNOLOGY, priority 2018, dated 2023).

Where a chain is given by its changes, count along the chain named.

On to `O=C(NCCCCOc1ccc(C(=C2C3CC4CC(C3)CC2C4)c2ccc(O)cc2)cc1)C12CC3CC(CC(C3)C1)C2` [Example 6, N-(4-(4-(Adamantan-2-ylidene(4-hydroxyphenyl)methyl)phenoxy)-butyl)adamantane-1-carboxamide], for which the “CRISPR KI (% Inhibition) D538G cl. 50” value at CRISPR KI D538G was determined as 68%. Further, the “CRISPR KI (% Inhibition) D538G cl. 65” value on CRISPR KI D538G came out at 73%. For the same compound, the inhibition (commonly the relative decrease from the control value, in per cent) at 1 µM turned out to be 70% on HA-ERα L536R, 87% on HA-ERα D538G, 62% against HA-ERα Y537S and 84% at HA-ERα wild type.
`O=C(NCCCCOc1ccc(C(=C2C3CC4CC(C3)CC2C4)c2ccc(O)cc2)cc1)C12CC3CC(CC1C3)C2` [Example 8, N-(4-(4-((Adamantan-2-ylidene)(4-hydroxyphenyl)methyl)phenoxy)butyl)-hexahydro-2,5-methanopentalene-3a(1H)-carboxamide]: the “CRISPR KI (% Inhibition) D538G cl. 50” value on CRISPR KI D538G is on record as 39%. Further, the “CRISPR KI (% Inhibition) D538G cl. 65” value on CRISPR KI D538G is reported as 78%. In addition, the inhibition at 1 µM against HA-ERα L536R was 84%; at HA-ERα D538G it was 89%; at HA-ERα Y537S, 31%; at HA-ERα wild type, 83%.
On to `O=C(NCCCCOc1ccc(C(=C2C3CC4CC(C3)CC2C4)c2ccc(O)cc2)cc1)C1CCCCC1` [Example 11, N-(4-(4-(Adamantan-2-ylidene(4-hydroxyphenyl)methyl)phenoxy)butyl)-cyclohexanecarboxamide], for which, on CRISPR KI D538G, the “CRISPR KI (% Inhibition) D538G cl. 50” value was 74%. At CRISPR KI D538G, the “CRISPR KI (% Inhibition) D538G cl. 65” value was 84%. Further, the inhibition at 1 µM against HA-ERα L536R was 79%; at HA-ERα D538G, 91%; against HA-ERα Y537S, 86%; on HA-ERα wild type, 89%.
On to `O=C(NCCCCOc1ccc(C(=C2C3CC4CC(C3)CC2C4)c2ccc(O)cc2)cc1)C1CCCCCC1` [Example 12, N-(4-(4-(Adamantan-2-ylidene(4-hydroxyphenyl)methyl)phenoxy)butyl)-cycloheptanecarboxamide], for which, on CRISPR KI D538G, the “CRISPR KI (% Inhibition) D538G cl. 50” value was found to be 36%. Also, the “CRISPR KI (% Inhibition) D538G cl. 65” value on CRISPR KI D538G worked out at 80%. The inhibition at 1 µM on HA-ERα L536R is 87%; on HA-ERα D538G, 92%; against HA-ERα Y537S it was 58%; at HA-ERα wild type, 90%.
As for `CC12CC3CC(C)(C1)CC(C(=O)NCCCCOc1ccc(C(=C4C5CC6CC(C5)CC4C6)c4ccc(O)cc4)cc1)(C3)C2` [Example 7, N-(4-(4-(Adamantan-2-ylidene(4-hydroxyphenyl)methyl)phenoxy)butyl)-3,5-dimethyladamantane-1-carboxamide], at CRISPR KI D538G, the “CRISPR KI (% Inhibition) D538G cl. 50” value came to 15%. For the same compound, at CRISPR KI D538G, the “CRISPR KI (% Inhibition) D538G cl. 65” value is listed as 44%. Moreover, the inhibition at 1 µM at HA-ERα L536R turned out to be 77%; against HA-ERα D538G it was 83%; on HA-ERα Y537S it was 46%; on HA-ERα wild type, 83%.
With `O=C(NCCCCOc1ccc(C(=C2C3CC4CC(C3)CC2C4)c2ccc(O)cc2)cc1)[C@H]1CC[C@H](C(F)(F)F)CC1` [Example 14, (trans)-N-(4-(4-(Adamantan-2-ylidene(4-hydroxyphenyl)methyl)phenoxy)-butyl)-4-(trifluoromethyl)cyclohexanecarboxamide], the “CRISPR KI (% Inhibition) D538G cl. 50” value at CRISPR KI D538G was 67%. Besides, at CRISPR KI D538G, the “CRISPR KI (% Inhibition) D538G cl. 65” value is reported as 73%. The inhibition at 1 µM against HA-ERα L536R is 82%; on HA-ERα D538G, 88%; on HA-ERα Y537S it was 26%; at HA-ERα wild type, 81%.
On to `O=C(NCCCCOc1ccc(C(=C2C3CC4CC(C3)CC2C4)c2ccc(O)cc2)cc1)C1CCC(F)(F)CC1` [Example 13, N-(4-(4-(Adamantan-2-ylidene(4-hydroxyphenyl)methyl)phenoxy)butyl)-4,4-difluorocyclohexanecarboxamide], for which the “CRISPR KI (% Inhibition) D538G cl. 50” value at CRISPR KI D538G is recorded as 32%. In addition, the “CRISPR KI (% Inhibition) D538G cl. 65” value on CRISPR KI D538G worked out at 77%. Besides, the inhibition at 1 µM at HA-ERα L536R is 90%; at HA-ERα D538G, 92%; against HA-ERα Y537S it was 46%; at HA-ERα wild type, 90%.
Turning to `O=C(NCCCCOc1ccc(C(=C2C3CC4CC(C3)CC2C4)c2ccc(O)cc2)cc1)C1CCC1` [Example 10, N-(4-(4-(Adamantan-2-ylidene(4-hydroxyphenyl)methyl)phenoxy)butyl)-cyclobutanecarboxamide], the “CRISPR KI (% Inhibition) D538G cl. 50” value on CRISPR KI D538G is 19%. Also, on CRISPR KI D538G, the “CRISPR KI (% Inhibition) D538G cl. 65” value was 65%. The inhibition at 1 µM on HA-ERα L536R was 78%; on HA-ERα D538G it was 89%; against HA-ERα Y537S, 11%; on HA-ERα wild type it was 84%.
Consider `CC(C)(C)OC(=O)N[C@@H](Cc1c[nH]c2ccccc12)C(=O)NCCCCOc1ccc(C(=C2C3CC4CC(C3)CC2C4)c2ccc(O)cc2)cc1` [Example 1, (S)-tert-Butyl (1-((4-(4-(adamantan-2-ylidene(4-hydroxyphenyl)methyl)-phenoxy)butyl)amino)-3-(1H-indol-3-yl)-1-oxopropan-2-yl)carbamate], for which the “CRISPR KI (% Inhibition) D538G cl. 50” value at CRISPR KI D538G is reported as 15%. The “CRISPR KI (% Inhibition) D538G cl. 65” value at CRISPR KI D538G is listed as 71%. In addition, the inhibition at 1 µM against HA-ERα L536R is 70%; at HA-ERα D538G it was 84%; against HA-ERα Y537S, 62%; on HA-ERα wild type it was 71%.
